In PubChem BioAssay (NCI):
“And” between values parts separate entries of the source, which are not always exact repeats. Equal values may be shown once.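 The compound was tested at five concentrations on cells cultured in 96-well plates, with a 48-hour exposure period. At the GI50, growth is halved. Definition used: TGI = concentration required for complete inhibition of growth.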

Legend:
Experiment in all cases: DTP human tumour cell line panel, 48 h
[1] = tested on: SW-620 colon
[2] = tested on: NCI-H23 lung
[3] = tested on: ACHN renal
[4] = tested on: RPMI-8226 leukemia
[5] = tested on: SR leukemia
[6] = tested on: NCI-H522 lung
[7] = tested on: MOLT-4 leukemia
[8] = tested on: HL-60(TB) leukemia
[9] = tested on: MDA-MB-231 breast
[10] = tested on: HCT-116 colon

Structure (SMILES)	GI50 [1] [µM]	TGI [1] [µM]	GI50 [2] [µM]	TGI [2] [µM]	GI50 [3] [µM]	TGI [3] [µM]	GI50 [4]	TGI [4] [µM]	GI50 [5] [µM]	TGI [5] [µM]	GI50 [6] [µM]	TGI [6] [µM]	GI50 [7] [µM]	TGI [7] [µM]	GI50 [8] [µM]	TGI [8] [µM]	GI50 [9] [µM]	TGI [9] [µM]	GI50 [10] [µM]	TGI [10]
CN1CCN(C(=O)C(C)(C)c2ccc(C(=O)Nc3cn4cc(-c5ccncc5)ccc4n3)cc2)CC1	0.185	> 56	0.307	19.2	0.238	1.48	0.201 µM	1.35	0.135	4.7	0.22	13.4	0.319	> 46.7	0.371	3.55	0.413	> 54.1	0.0802	> 100 µM
O=C1CCCCCCCCCCC1CN1CCCC1 (stereo unspecified)		> 100		> 100		> 100		> 100				> 100		> 100		> 100		> 100		> 100 µM
Cn1ncnc1[C@H]1c2n[nH]c(=O)c3cc(F)cc(c23)N[C@@H]1c1ccc(F)cc1	25.9	> 100	> 34.5	> 100	54.3	> 100	> 100 µM	> 100	0.0417	> 100	> 100	> 100	5.07	> 100	10.3	> 100	> 100	> 100	> 80.4	> 100 µM
CC[C@@]1(O)C(=O)OCc2c1cc1n(c2=O)Cc2cc3cc4c(cc3nc2-1)OCO4		3.18								> 100		0.113		0.00137				> 100	< 0.001	0.136 µM and 1.27 µM
COc1ccc2c(c1)NC1=C(C(=O)OC1)C2c1cc(OC)c2c(c1)OCO2 (stereo unspecified)	< 0.0192	> 100	0.0259	> 100	0.0567	> 100	< 0.0198 µM	> 100	< 0.0191	> 100		0.0251	0.0246	> 100	0.0209	> 100	0.0342	> 100	< 0.0182	
C=C1C(O)C2C(=C(CC)C13CC3)C(=O)C(C)(C)C2OC (stereo unspecified)	59.9	> 100	55.6	> 100	67.8	> 100	20.6 µM	68	23.5	68	37.6	> 100	27.3	> 100			87.5	> 100	28.3	> 100 µM
CCCCOC(=O)N1CCN(/[N+]([O-])=N/Oc2ccc([N+](=O)[O-])cc2[N+](=O)[O-])CC1	3.38	> 100	4.6	19.5	2.53	7.19	2.3 µM	5.47	> 100	> 100	2.91	> 100	> 100	> 100	6.85	> 100	2.31	5.63	2.07	3.53 µM
CN(C)CCN1C(=O)c2c(c3c4ccccc4n4c3c3c2c2ccccc2n3C2CC(O)C(O)C4(C)O2)C1=O (stereo unspecified)	0.407	7.7	1.81	9.75	0.816	3.37	1.58 µM	7.82	0.207	6.17	0.855	3.66	0.209	10.9	2.47	12.8	2.61	11.5	0.626	6.71 µM
O=c1cnn(C2OC(CO)C(O)C2O)c(=S)[nH]1 (stereo unspecified)		> 74.6		> 100		> 100		> 29.8		19.2		> 55.4		> 30.7		> 100		> 100		> 100 µM
CC(C)(C)C(=O)OCC1C(=O)OCC1C(=O)N1Cc2cc3ccccc3nc2C1 (stereo unspecified)		3.17		13.6		7.54		4.82		3.77		2.2		4.06		3.13		14.4		5.28 µM
Nc1ncnc2c1N=C(c1ccc3c(c1)OCO3)CC(c1ccc([N+](=O)[O-])cc1)N2 (stereo unspecified)	53.2	> 100	> 100	> 100	29.1	> 100	0.194 µM	49	2.37	67.9	6.78	> 100	23.7	> 100	13.1	> 100	38.9	> 100	18.2	> 100 µM
COc1ccc(CCN2CC=Cn3c2nc2ccccc2c3=O)cc1	0.037	> 100	0.0416	> 100	0.0919	> 49.2	0.0415 µM	43	0.0354	> 100	0.0113	0.0375	0.0523	> 100	< 0.0116	0.0648	0.0558	> 100	0.0347	> 100 µM
Cc1cc2c(C(C)C)c(O)c(O)cc2c(O)c1-c1c(C)cc2c(C(C)C)c(O)c(O)cc2c1O	16.7	40.5	18.4	37.5	8.66	21.9	13.1 µM	39.3	8.24	28.4	10.1	24.5	10.6	44.9	9.07	34.1	13.5	34.8	3.98	14 µM
O=C1NC(Nc2ccccc2)=NC(C(F)(F)F)(C(F)(F)F)N1		> 100		> 100		> 100		> 100		> 100				> 100		> 100		> 100		> 100 µM
Cc1cccc(/C=N/NC(=S)N2CCCC2)n1	0.352	> 100	0.401	13.4	1.44		0.426 µM and 0.322 µM	> 100	0.15	0.876		> 100		> 100	0.236	0.872	1.14			
COc1cc2nc(N3CCCC3)nc(NCc3ccccc3)c2cc1OC	2.28	6.24	11.2	25.2	1.89	3.89	2.44 µM	5.99	1.53	5.3	2.14	4.96	2.89	9.1	2.07	4.33	2.1	4.48	1.82	4.12 µM

Structure (SMILES)	GI50 [1] [µM]	TGI [1] [µM]	GI50 [2] [µM]	TGI [2] [µM]	GI50 [3] [µM]	TGI [3] [µM]	GI50 [4]	TGI [4] [µM]	GI50 [5] [µM]	TGI [5] [µM]	GI50 [6] [µM]	TGI [6] [µM]	GI50 [7] [µM]	TGI [7] [µM]	GI50 [8] [µM]	TGI [8] [µM]	GI50 [9] [µM]	TGI [9] [µM]	GI50 [10] [µM]	TGI [10]
CCOC(=O)CCC(NC(=O)OCc1ccccc1)C(=O)NC(CCC(=O)OCC)C(=O)NC(CCC(=O)OCC)C(=O)NC(CCC(=O)OCC)C(=O)NC(CCC(=O)OCC)C(=O)NC(CCC(=O)OCC)C(=O)NC(CCC(=O)OCC)C(=O)OCC (stereo unspecified)		> 100		> 100		> 100		> 100		> 100		> 100		> 100		> 100		> 100		> 100 µM
O=C(C/C(=N/O)C(=O)NC1=C(Cl)C(=O)c2ccccc2C1=O)CC(c1ccccc1)c1c(O)c2ccccc2oc1=O (stereo unspecified)		> 100		72.1		65.7		> 100		> 100		52.9		> 100				26.5		20.6 µM
CC(=O)N1CC(C)(C)c2c(C)c(O)c(C)c(C)c21		> 100		> 100		> 100		> 100				> 100		> 100		> 100		> 100		> 100 µM
O=C1Nc2ccc(Br)cc2C1=Nc1cccnc1		46.4		45.4		39.3		60.9				29.5		64.5		48.8		37.6		44.5 µM
O=C(Nc1ccc(Br)cc1F)c1cc(I)ccc1O	3.07	17.7	1.9	6.01					2.71	> 100	2.11	7.16	2.66	7.48	2.13	4.79	1.77	6.28	2.79	11.4 µM
COc1cc(OC)c(C/C=C/c2ccccc2)cc1O		38		35.2		72.3		38				27.2		40.5		52.2		31.7		30 µM
CC(C)CCCC(C)[C@H]1CCC2[C@@H]3CCC4Cc5nc6c(nc5C[C@]4(C)C3CC[C@@]21C)CC1CC[C@@H]2C(CC[C@@]3(C)C2CC[C@@H]3C(C)CCCC(C)C)[C@@]1(C)C6 (stereo partly specified)		> 100		> 100		> 100		> 100		> 100				> 100		> 100		> 100		> 100 µM
Cc1cc([N+](=O)[O-])c(NS(=O)(=O)c2cccc(C(=O)O)c2)cc1-c1cccnc1	> 100	> 100	> 100	> 100	> 100	> 100	> 100 µM	> 100	> 100	> 100			> 100	> 100	> 100	> 100	> 100	> 100	> 100	> 100 µM
O=C1C(Nc2ccc(Cl)cc2)=C(I)C(=O)c2ncccc21	0.378	2	1.25	3.17	0.376	1.32	1.33 µM	5	0.301	2.28			0.964	9.32			1.31	2.7	0.305	1.18 µM
C/C(O)=C(/C=N/C(=S)Nc1ccc(S(N)(=O)=O)cc1)C(=O)Nc1ccccc1C		> 100		> 100		> 100		97.3				> 100		> 100		42.8		> 100		> 100 µM
CC1(C)CC(O)C(C)(C)[C@@H](O)C1 (stereo partly specified)		> 100		> 100		> 100						> 100		> 100		> 100		> 100		> 100 µM
CC1(C)C2CCC13C(=O)C1OC3(C2)C2C(=O)c3ccccc3C(=O)C12 (stereo unspecified)			> 100	> 100	> 100	> 100			> 100	> 100	> 100	> 100	> 100	> 100	> 100	> 100	2.44	7.98	> 100	> 100 µM
COc1cc(C(=O)c2c(-c3ccccc3)oc3c(OC)cccc23)cc(OC)c1OC	0.0497	> 100	0.106	16.8	0.0719	> 100	0.112 µM	> 100	0.0363	> 100	0.0348	> 34.4	0.345	> 100	0.0448	0.2	0.203	2		
C/C(=N/NC(=S)N1CCCCC1)c1ccccc1O		> 31.6		> 31.6		> 31.6		> 31.6				> 31.6		> 31.6		> 31.6		> 100		
COc1cc2c(cc1OC)[C@H](C)N1CCc3cc(OC)c(OC)cc3[C@@H]1C2		> 100		> 100		> 100		> 100				> 100		> 100		> 100		> 100		> 100 µM
CSC1=C(N)C(=O)c2[nH]cc(CO)c2C1=N	0.198	0.422	0.109	0.344			0.293 µM	1.2	0.221	0.659	0.155	0.364	0.204	0.475	0.222	0.514	0.236	0.669	0.256	0.666 µM
